According to US5286492A, “Method of treatment of Heliobacter pylori infections with triclosan” (Reckitt & Colman Products Limited, priority 1990, dated 1994):
Converted amounts (≈) assume the structure as drawn. Read-outs that look alike come from different tables or passages of the source.

Assays:
Helicobacter pylori [1] = assay: MIC50/MIC90 versus Helicobacter pylori by agar dilution technique at neutral pH; assay type: cell-based; conditions: for activity compared with the twelve agents tested: Table 1
Method: (§1) The in vitro activities of a range of antimicrobial compounds versus Helicobacter pylori were determined by methods based on those of McNulty et al (Antimicrobial Agents and Chemotherapy, 28, 837-838, 1985). The Minimum Inhibitory concentrations for 50% and 90% of the strains used (MIC50 and MIC90), versus each antimicrobial were determined using an agar dilution technique.
(§2) The MIC of an antimicrobial agent was defined as that concentration (in mg per liter of agar) at which less than 1 in 10^5 organisms produced visible colonies.
(§3) Helicobacter pylori strains were isolated from gastric antrum biopsy specimens taken at routine endoscopy during investigation of upper gastrointestinal symptoms. They were identified as Helicobacter pylori by their colonial morphology, gram stain appearance and positive rapid urease test. The organisms were stored in liquid nitrogen before use and subcultured for testing by 48 hour incubation, at 37° C. under 10% carbon dioxide in Tryptone Soya Broth (TSB, OXOID, UK) plus 5% horse serum (Tissue Culture Services, UK).
The first test procedure determined the effectiveness of a range of antimicrobial substances versus 16 to 18 strains of Helicobacter pylori at neutral pH. Freshly prepared Isosensitest Agar of pH 7.2 (Oxoid, UK) supplemented with 10% saponinlysed horse blood was used to prepare a dilution series of each antimicrobial from which agar plates were produced. A multipoint inoculator (Denley-Tech, UK) was used to deliver 1 µl of undiluted test culture to the surface of each plate in the dilution series to give approximately 10^6 cfu/spot. The plates were incubated for three days at 37° C. in a microaerobic atmosphere of 6% oxygen and 10% carbon dioxide.

Helicobacter pylori [2] = assay: Effect of pH (5 to 8) on activity (MIC90) against Helicobacter pylori, agar dilution; assay type: cell-based; conditions: for MIC / MIC90: Helicobacter pylori; for activity compared among the three agents (in words) / effect of pH on activity (in words): pH range 5 to 8
Method: as §1, §2, §3
The three selected agents were triclosan, clioquinol (5-chloro-7-iodo-8-hydroxy-quinolone) and cetalkonium chloride.
In the test procedure, Sorensens phosphate buffer (0.1M) was used to prepare the range of pH values 5, 5.5, 6, 6.5, 7, 7.5 and 8. Oxoid Columbia Agar Base (CM331) was added and the media autoclaved. After cooling to 50° C., 7% Lysed Horse Blood (Tissue Culture Services, UK) was added and media at each pH was used to prepare a range of concentrations of the three selected test antimicrobial agents. To ensure pH stability, a surface pH electrode was used to monitor control plates before, during and at the end of the three day microaerobic incubation.
The MIC90 was determined for each at each pH as described in the previous test procedure.

Helicobacter pylori [3] = conditions: cited from earlier work
[4] = test system: Helicobacter pylori infection; conditions: by twelve months post therapy; cited from earlier work
[5] = Helicobacter pylori, 72 h, eighteen isolates, neutral pH (agar pH 7.2), read-out: MIC50
[6] = Helicobacter pylori, eighteen isolates, neutral pH (agar pH 7.2), read-out: MIC Range
[7] = Helicobacter pylori, pH 7.2, read-out: MIC Range
[8] = Helicobacter pylori, eighteen isolates, neutral pH (agar pH 7.2), read-out: MIC90
[9] = pH 5.0, sixteen isolates (triclosan, clioquinol) or eighteen (cetalkonium chloride), read-out: MIC90
[10] = pH 5.0, sixteen isolates (triclosan, clioquinol) or eighteen (cetalkonium chloride), read-out: MIC Range
[11] = pH 5.5, sixteen isolates (triclosan, clioquinol) or eighteen (cetalkonium chloride), read-out: MIC90
[12] = pH 5.5, sixteen isolates (triclosan, clioquinol) or eighteen (cetalkonium chloride), read-out: MIC Range
[13] = pH 6.0, sixteen isolates (triclosan, clioquinol) or eighteen (cetalkonium chloride), read-out: MIC90
[14] = pH 6.0, sixteen isolates (triclosan, clioquinol) or eighteen (cetalkonium chloride), read-out: MIC Range
[15] = pH 6.5, sixteen isolates (triclosan, clioquinol) or eighteen (cetalkonium chloride), read-out: MIC90
[16] = pH 7.0, sixteen isolates (triclosan, clioquinol) or eighteen (cetalkonium chloride), read-out: MIC90
[17] = pH 7.0, sixteen isolates (triclosan, clioquinol) or eighteen (cetalkonium chloride), read-out: MIC Range
[18] = pH 7.5, sixteen isolates (triclosan, clioquinol) or eighteen (cetalkonium chloride), read-out: MIC90
[19] = pH 7.5, sixteen isolates (triclosan, clioquinol) or eighteen (cetalkonium chloride), read-out: MIC Range
[20] = pH 8.0, sixteen isolates (triclosan, clioquinol) or eighteen (cetalkonium chloride), read-out: MIC90
[21] = eighteen isolates, neutral pH (agar pH 7.2)

CCCCCCc1ccc(O)cc1O [4-Hexylresorcinol]
MIC50 (Helicobacter pylori [1]; [5]): 32 µg/mL (≈ 165 µM) | MIC90 (Helicobacter pylori [1]; Helicobacter pylori, pH 7.2): 32 µg/mL (≈ 165 µM) | MIC (Helicobacter pylori [1]; [6]): 16 to 32 µg/mL (≈ 82.4 to 165 µM)

CCCCCCCCCCCCCCCC[N+](C)(C)Cc1ccccc1 [Cetalkonium Cl]
MIC50 (Helicobacter pylori [1]; [5]): 2 µg/mL | MIC (Helicobacter pylori [1]; [7]): 2 to 4 µg/mL | MIC90 (Helicobacter pylori [1]; [8]): 4 µg/mL | MIC (Helicobacter pylori [2]; pH 8, read-out: MIC Range): 1 to 8 µg/mL | MIC90 (Helicobacter pylori [2]; [9]): 1 µg/mL | MIC (Helicobacter pylori [2]; [10]): 0.5 to 2 µg/mL | MIC90 (Helicobacter pylori [2]; [11]): 2 µg/mL | MIC (Helicobacter pylori [2]; [12]): 0.5 to 2 µg/mL | MIC90 (Helicobacter pylori [2]; [13]): 2 µg/mL | MIC (Helicobacter pylori [2]; [14]): 1 to 4 µg/mL | MIC90 (Helicobacter pylori [2]; [15]): 4 µg/mL | MIC (Helicobacter pylori [2]; pH 6.5, sixteen isolates (triclosan, clioquinol) or eighteen (cetalkonium chloride), read-out: MIC Range): 2 to 4 µg/mL | MIC90 (Helicobacter pylori [2]; [16]): 4 µg/mL | MIC (Helicobacter pylori [2]; [17]): 2 to 4 µg/mL | MIC90 (Helicobacter pylori [2]; [18]): 4 µg/mL | MIC (Helicobacter pylori [2]; [19]): 1 to 4 µg/mL | MIC90 (Helicobacter pylori [2]; [20]): 2 µg/mL | activity compared among the three agents (in words) (Helicobacter pylori [2]): demonstrated similar MIC90 activity profiles across the pH range | effect of pH on activity (in words) (Helicobacter pylori [2]): largely unaffected by pH over the range 5 to 8

Oc1c(I)cc(Cl)c2cccnc12 [Clioquinol, 5-chloro-7-iodo-8-hydroxy-quinolone]
MIC50 (Helicobacter pylori [1]; [5]): 16 µg/mL (≈ 52.4 µM) | MIC (Helicobacter pylori [1]; [7]): 8 to 16 µg/mL (≈ 26.2 to 52.4 µM) | MIC90 (Helicobacter pylori [1]; [8]): 16 µg/mL (≈ 52.4 µM) | MIC (Helicobacter pylori [2]; pH 6.5, read-out: MIC Range): 0.5 to 16 µg/mL (≈ 1.64 to 52.4 µM) | MIC (Helicobacter pylori [2]; pH 8, read-out: MIC Range): 0.5 to 2 µg/mL (≈ 1.64 to 6.55 µM) | MIC90 (Helicobacter pylori [2]; [9]): 2 µg/mL (≈ 6.55 µM) | MIC (Helicobacter pylori [2]; [10]): 0.5 to 4 µg/mL (≈ 1.64 to 13.1 µM) | MIC90 (Helicobacter pylori [2]; [11]): 8 µg/mL (≈ 26.2 µM) | MIC (Helicobacter pylori [2]; [12]): 2 to 8 µg/mL (≈ 6.55 to 26.2 µM) | MIC90 (Helicobacter pylori [2]; [13]): 8 µg/mL (≈ 26.2 µM) | MIC (Helicobacter pylori [2]; [14]): 2 to 8 µg/mL (≈ 6.55 to 26.2 µM) | MIC90 (Helicobacter pylori [2]; [15]): 8 µg/mL (≈ 26.2 µM) | MIC90 (Helicobacter pylori [2]; [16]): 2 µg/mL (≈ 6.55 µM) | MIC (Helicobacter pylori [2]; [17]): 0.5 to 4 µg/mL (≈ 1.64 to 13.1 µM) | MIC90 (Helicobacter pylori [2]; [18]): 2 µg/mL (≈ 6.55 µM) | MIC (Helicobacter pylori [2]; [19]): 0.5 to 4 µg/mL (≈ 1.64 to 13.1 µM) | MIC90 (Helicobacter pylori [2]; [20]): 1 µg/mL (≈ 3.27 µM)

Oc1ccc(Cl)cc1Cc1cc(Cl)ccc1O [Dichlorphen]
MIC50 (Helicobacter pylori [1]; [5]): 16 µg/mL (≈ 59.5 µM) | MIC90 (Helicobacter pylori [1]; [8]): 16 µg/mL (≈ 59.5 µM) | MIC (Helicobacter pylori [1]; [6]): 8 to 16 µg/mL (≈ 29.7 to 59.5 µM)

COc1ccccc1O [Guaiacol]
MIC50 (Helicobacter pylori [1]; [5]): 64 µg/mL (≈ 516 µM) | MIC90 (Helicobacter pylori [1]; [8]): 64 µg/mL (≈ 516 µM) | MIC (Helicobacter pylori [1]; [6]): 32 to 128 µg/mL (≈ 258 to 1030 µM)

CCCCC(CC)CN1CN(CC(CC)CCCC)CC(C)(N)C1 (stereo not drawn) [Hexetidine]
MIC50 (Helicobacter pylori [1]; [5]): 16 µg/mL (≈ 47.1 µM) | MIC90 (Helicobacter pylori [1]; [8]): 16 µg/mL (≈ 47.1 µM) | MIC (Helicobacter pylori [1]; [6]): 8 to 16 µg/mL (≈ 23.6 to 47.1 µM)

N=C(NCCCCCCNC(=N)NC(=N)Nc1ccc(Cl)cc1)NC(=N)Nc1ccc(Cl)cc1 [Hibitane]
MIC50 (Helicobacter pylori [1]; [5]): 32 µg/mL (≈ 63.3 µM) | MIC90 (Helicobacter pylori [1]; [8]): 32 µg/mL (≈ 63.3 µM) | MIC (Helicobacter pylori [1]; [6]): 16 to 32 µg/mL (≈ 31.7 to 63.3 µM)

Cc1cc(O)cc(C)c1Cl [PCMX]
MIC50 (Helicobacter pylori [1]; [5]): 32 µg/mL (≈ 204 µM) | MIC90 (Helicobacter pylori [1]; [8]): 64 µg/mL (≈ 409 µM) | MIC (Helicobacter pylori [1]; [6]): 8 to 64 µg/mL (≈ 51.1 to 409 µM)

CCS(=O)(=O)CCn1c([N+](=O)[O-])cnc1C [Tinidazole]
MIC50 (Helicobacter pylori [1]; [5]): 0.5 µg/mL (≈ 2.02 µM) | MIC (Helicobacter pylori [1]; Helicobacter pylori, 72 h, fifteen of eighteen isolates, neutral pH, read-out: MIC of sensitive isolates): < 2 µg/mL | MIC (Helicobacter pylori [1]; Helicobacter pylori, 72 h, three of eighteen strains, neutral pH, read-out: MIC of strains demonstrating evidence of resistance): 16 µg/mL | MIC90 (Helicobacter pylori [1]; [8]): 16 µg/mL (≈ 64.7 µM) | MIC (Helicobacter pylori [1]; [6]): 0.25 to 16 µg/mL (≈ 1.01 to 64.7 µM) | distribution of MICs (Helicobacter pylori [1]; eighteen isolates, neutral pH): bimodal distribution of MICs | activity compared with the twelve agents tested (Helicobacter pylori [1]; neutral pH): demonstrated the greatest activity of the twelve antimicrobial agents tested

Oc1cc(Cl)ccc1Oc1ccc(Cl)cc1Cl [Triclosan, 2-hydroxy-4,2',4'-trichloro-diphenyl ether]
MIC50 (Helicobacter pylori [1]; Helicobacter pylori, 72 h, pH 7.2): 1 µg/mL (≈ 3.45 µM) | MIC90 (Helicobacter pylori [1]; Helicobacter pylori, pH 7.2): 8 µg/mL (≈ 27.6 µM) | MIC (Helicobacter pylori [1]; [7]): 0.25 to 16 µg/mL (≈ 0.863 to 55.3 µM) | activity compared with the twelve agents tested (Helicobacter pylori [1]; neutral pH): demonstrated the greatest activity of the twelve antimicrobial agents tested | MIC90 (Helicobacter pylori [2]; pH 5): 0.25 µg/mL (≈ 0.863 µM) | MIC (Helicobacter pylori [2]; pH 5, read-out: MIC Range): 0.06 to 0.25 µg/mL (≈ 0.207 to 0.863 µM) | MIC90 (Helicobacter pylori [2]; pH 5.5): 1 µg/mL (≈ 3.45 µM) | MIC (Helicobacter pylori [2]; pH 5.5, read-out: MIC Range): 0.06 to 1 µg/mL (≈ 0.207 to 3.45 µM) | MIC90 (Helicobacter pylori [2]; pH 6): 1 µg/mL (≈ 3.45 µM) | MIC (Helicobacter pylori [2]; pH 6, read-out: MIC Range): 0.12 to 2 µg/mL (≈ 0.414 to 6.91 µM) | MIC90 (Helicobacter pylori [2]; pH 6.5): 2 µg/mL (≈ 6.91 µM) | MIC (Helicobacter pylori [2]; pH 6.5, read-out: MIC Range): 0.12 to 4 µg/mL (≈ 0.414 to 13.8 µM) | MIC90 (Helicobacter pylori [2]; pH 7): 2 µg/mL (≈ 6.91 µM) | MIC (Helicobacter pylori [2]; pH 7, read-out: MIC Range): 0.06 to 4 µg/mL (≈ 0.207 to 13.8 µM) | MIC90 (Helicobacter pylori [2]; pH 7.5): 2 µg/mL (≈ 6.91 µM) | MIC (Helicobacter pylori [2]; pH 7.5, read-out: MIC Range): 0.06 to 4 µg/mL (≈ 0.207 to 13.8 µM) | MIC90 (Helicobacter pylori [2]; pH 8): 2 µg/mL (≈ 6.91 µM) | MIC (Helicobacter pylori [2]; pH 8, read-out: MIC Range): 0.06 to 2 µg/mL (≈ 0.207 to 6.91 µM) | activity compared among the three agents (in words) (Helicobacter pylori [2]): demonstrated the greatest activity | effect of pH on activity (in words) (Helicobacter pylori [2]): low at pH 5.0 and unaffected in the range pH 5.5 to 8.0

O=C([O-])CC(O)(CC(=O)[O-])C(=O)[O-].O=C([O-])CC(O)(CC(=O)[O-])C(=O)[O-].[Bi+3].[K+].[K+].[K+] [bismuth subcitrate]
reported MIC90 (Helicobacter pylori [3]; neutral pH): 16 mg/L

Cc1ncc([N+](=O)[O-])n1CCO [metronidazole]
distribution of MICs (previously reported) (Helicobacter pylori [3]): bimodal distribution

Halquinol
MIC50 (Helicobacter pylori [1]; [21]): 16 µg/mL | MIC90 (Helicobacter pylori [1]; [21]): 16 µg/mL | MIC Range (Helicobacter pylori [1]; [21]): 16 mg/L

bismuth
recurrence of the infection [4]: ~100%
